Legend:
Type in all cases: in vivo
KK-Ay mice [1] = test: Serum insulin value in KK-Ay mouse with administration of corosolic acid; details: after 4 hours from the administration, vs group without corosolic acid
Description: On the KK-Ay mouse groups with or without corosolic acid administrated in “Blood sugar level in KK-Ay mouse by administration of corosolic acid” described above, the serum insulin values were measured after 4 hours from the administration. The serum insulin values were measured by the enzyme 2-antibody method. The measured data were rated by the Student's t-test to determine whether or not they had significant differences according to the same criterion as above.

KK-Ay mice [2] = test: Blood sugar level in KK-Ay mouse with administration of corosolic acid; details: oral administration
Description: KK-Ay mice (CLEA JAPAN, INC.) which are the model animals for Type II diabetes were employed for test animals. These KK-Ay mice aged 6 to 10 weeks, having 300 mg/dL of blood sugar level. Corosolic acid which was extracted from Banaba leaves and purified was forcefully administrated to these KK-Ay mice using an injection syringe and an oral sound for mouse. Blood samples were collected at 2, 4 and 7 hours after the administration using the orbital vein blood sampling method, and the blood sugar levels were determined by the glucose oxidase method. Blood sugar levels were measured on four KK-Ay mice. The measured values were used to calculate an average, which was evaluated by the Student's t-test. […] FIG. 1 describes the blood sugar level data as average value± standard error. The p-value of 0.05 or below in the Student's t-test was rated to be significant (the significance is shown with * mark in the Figure: the same is applied hereinafter).

ddY mice = test: Blood sugar level of ddY mouse by administration of corosolic acid; details: ddY normal mice, oral administration, 2, 4, and 7 hours after the administration
Description: KK-Ay mice (CLEA JAPAN, INC.) which are the model animals for Type II diabetes were employed for test animals. These KK-Ay mice aged 6 to 10 weeks, having 300 mg/dL of blood sugar level. Corosolic acid which was extracted from Banaba leaves and purified was forcefully administrated to these KK-Ay mice using an injection syringe and an oral sound for mouse. Blood samples were collected at 2, 4 and 7 hours after the administration using the orbital vein blood sampling method, and the blood sugar levels were determined by the glucose oxidase method. Blood sugar levels were measured on four KK-Ay mice. The measured values were used to calculate an average, which was evaluated by the Student's t-test. […] FIG. 1 describes the blood sugar level data as average value± standard error. The p-value of 0.05 or below in the Student's t-test was rated to be significant (the significance is shown with * mark in the Figure: the same is applied hereinafter). Blood sugar level was determined by the same procedure as described in the above “Blood sugar level in KK-Ay mouse by administration of corosolic acid”, except that the ddY mice which are the normal mice (Japan SLC, Inc.) were employed instead of the KK-Ay mice which are the model animals for Type II diabetes.

[3] = tested on: glucose transporter type 4 (GLUT4); test: Effect of corosolic acid on GLUT4 in mouse skeletal muscle (western blotting of PM and LDM fractions); details: KK-Ay mice, after 4 hours from the administration
Description: The intake of sugar into cells is conducted by a carrier protein in the transporting system on cell membrane, called glucose transporter (GLUT). Muscle has glucose transporter type 1 (GLUT1) and glucose transporter type 4 (GLUT4). […] This change in location within a cell is called GLUT4 translocation. It is speculated that significant increase of glucose in muscle and fat tissues is mainly due to the translocation of GLUT4. In view of this point, the effect of corosolic acid on GLUT4 was studied. First, the low density microsome (LDM) fraction and the plasma membrane (PM) fraction were prepared using the sucrose concentration gradient in accordance with the method of Klip et al. (FEBS Lett., 224, 224-230 (1987), Biochem. Biophys. Res. Commum., 172, 728-736 (1990)). On the KK-Ay mouse groups with or without corosolic acid administrated, the relative quantities of GLUT4 in the PM fraction and the LDM fraction were determined after 4 hours from the administration using the western blotting analysis.

## C[C@H]1[C@H](C)CC[C@]2(C(=O)O)CC[C@]3(C)C(=CC[C@@H]4[C@@]5(C)C[C@@H](O)[C@H](O)C(C)(C)[C@@H]5CC[C@]43C)[C@H]12 [corosolic acid]
KK-Ay mice [1]
  serum insulin value: no significant difference
KK-Ay mice [2]; after 4 hours from the administration
  blood sugar level: about 280 mg/dL
KK-Ay mice [2]; during 4 hours after the administration, vs control, Student's t-test
  change in blood sugar level: significantly decreases
ddY mice
  change in blood sugar level: No significant difference
[3]
  relative quantity of GLUT4 in the LDM fraction: decreased the GLUT4 of low density microsome
  relative quantity of GLUT4 in the PM fraction: increased it in the plasma membrane fraction
